Each structure is given as a SMILES string. Where two headings read alike, the source gives them in different places.

Data set [1] is described as follows: 23Na-NMR sodium sensing (shiftability and broadening). Format: physicochemical. The following applies: 150 mM NaCl; for Shiftability (Sc): negative = downfield, positive = upfield from unshifted sodium signal. An excerpt:
(§1) The synthesized complexes are characterized for water proton relaxivities with different concentrations of complexes, as well as their proton sensing (with BIRDS and CEST) and sodium sensing (with ^23Na-MRSI) properties on a Bruker AVANCE III HD 500 vertical-bore spectrometer (Bruker, Billerica, MA, USA) interfaced with Bruker TopSpin v3.2 software.
Sodium-23 (^23Na), which has 100% natural abundance, is also visible by magnetic resonance (I=3/2) and provides the second-strongest signal among biological ions after proton. […] Sodium (Na^+) concentration is normally low intracellularly (~10 mM) and high in blood and extracellular spaces (~150 mM), producing a strong transmembrane Nat gradient (ΔNa^+mem≈140 mM) and a weak transendothelial Na^+ gradient (ΔNa^+end≈0 mM). Distributions of sodium ion (Na^+) across biological membranes are tightly regulated, and thus variations of Nat across compartments often imply pathological states.
In vitro experiments are performed using concentric NMR tubes (spherical and cylindrical; Wilmad-LabGlass, Vineland, NJ, USA). One compartment (inner) contained 150 mM NaCl and the other (outer) contained the same but with varying amounts of transition metal complexes and 10% v/v ^2H2O to lock the spectrometer frequency using the ^2H2O signal. Each solution is pH-adjusted using HCl or KOH to give five different pH values. ^23Na-NMR spectra are collected on the same Bruker system as for ^1H NMR. […] Spectra are analyzed applying 10 Hz line broadening and manual zeroth- and first-order phasing. The chemical shift and line width of the shifted peak are measured using the “peakw” function on TopSpin.

A short description of data set [2]: BIRDS characterization: pH and temperature sensitivity of non-exchangeable (and -NH) proton chemical shifts by 1H NMR. Format: physicochemical. The following applies: for T sensitivity, -NH proton: -NH proton (exchangeable), 298 K to 318 K. The procedure:
as §1
The chemical shifts of proton resonances are measured relative to the water resonance (4.7 ppm). Temperature and pH sensitive non-exchangeable proton resonances in each complex are chosen for BIRDS detection. The temperature and pH dependences of proton chemical shifts are fitted to second-order polynomial equations:
δ=a+b pH+cT+dpH^2+eT^2+f pHT Eq. 1
Where, the coefficients a-f are obtained from the fit. The relaxation times (T1 and T2) of these resonances are measured at 35 °C using typical inversion-recovery and spin-echo methods, respectively.

For data set [3] the following is noted: literature value, cited from earlier work.
For data set [4] the following is noted: reported value, cited from earlier work; for Shiftability (Sc): negative = downfield, positive = upfield from unshifted sodium signal.
[5] abbreviates: 10 mM, pH 6.2-8.0, 298 K to 318 K, 11.7 T.
Where [6] appears, read: proton B, 10 mM, pH 6.2-8.0, 298 K to 318 K, 11.7 T.
The mark [7] stands for this setting: proton A (@56), comparator thulium complex.
Where [8] appears, read: proton B (@23), comparator thulium complex.
The mark [9] stands for this setting: proton C (@-20), comparator thulium complex.

`O=P(O)(O)CN1CCN(CP(=O)(O)O)CCN(CP(=O)(O)O)CC1.[Co+2]` [CONOTP^4-]: in data set [1], the “Broadening (βc)” value is recorded as 0.013 ppm/mM and the “Shiftability (Sc)” value is “+0.140 ppm/mM”. Further, in data set [2] (setting [5]), the “T sensitivity, non-exchangeable proton A” value was determined as 0.948 ppm/° C and the “pH sensitivity, non-exchangeable proton A” value is on record as 6.20 ppm/pH unit.

In the case of `O=P(O)(O)CN1CCN(CP(=O)(O)O)CCN(CP(=O)(O)O)CC1.[Fe+2]` [FeNOTP^4-], in data set [1], the “Broadening (βc)” value came out at 0.015 ppm/mM and the “Shiftability (Sc)” value was “+0.318 ppm/mM”. The “T sensitivity, non-exchangeable proton A” value in data set [2] (setting [5]) is 0.240 ppm/° C. For the same compound, the “T sensitivity, non-exchangeable proton B” value in data set [2] (setting [6]) was found to be 0.149 ppm/° C.

In the case of `O=P(O)(O)CN1CCN(CP(=O)(O)O)CCN(CP(=O)(O)O)CCN(CP(=O)(O)O)CC1.[Tm+3]` [TmDOTP^5-], in data set [3], the “T sensitivity, non-exchangeable proton H2” value was -0.6 ppm/° C; the “pH sensitivity, non-exchangeable proton H2” value was 4.2 ppm/pH unit; the “T sensitivity, non-exchangeable proton H3” value is reported as -0.5 ppm/° C; the “pH sensitivity, non-exchangeable proton H3” value is on record as 3.6 ppm/pH unit. In data set [3], the “T sensitivity, non-exchangeable proton H6” value was 1.1 ppm/° C and the “pH sensitivity, non-exchangeable proton H6” value is given as -3.9 ppm/pH unit. In addition, in data set [4], the “Broadening (βc)” value is 0.042 ppm/mM and the “Shiftability (Sc)” value is on record as -2.03 ppm/mM.

As to `O=C(CN1CCN(CC(=O)NCP(=O)(O)O)CCN(CC(=O)NCP(=O)(O)O)CCN(CC(=O)NCP(=O)(O)O)CC1)NCP(=O)(O)O.[Tm+3]` [TmDOTA-4AMP^5-], in data set [3] (proton H1), the “T sensitivity, non-exchangeable proton H1” value is 0.54 ppm/° C and the “pH sensitivity, non-exchangeable proton H1” value is 1.8 ppm/pH unit. Besides, in data set [3], the “T sensitivity, non-exchangeable proton H2” value was -0.24 ppm/° C; the “pH sensitivity, non-exchangeable proton H2” value is on record as -0.63 ppm/pH unit; the “T sensitivity, non-exchangeable proton H3” value is -0.188 ppm/° C; the “pH sensitivity, non-exchangeable proton H3” value is reported as -0.25 ppm/pH unit. Besides, in data set [3], the “T sensitivity, non-exchangeable proton H6” value is recorded as 0.45 ppm/° C and the “pH sensitivity, non-exchangeable proton H6” value is on record as 1.2 ppm/pH unit. Besides, in data set [3] (proton H4), the “T sensitivity, non-exchangeable proton H4” value was -1.49 ppm/° C and the “pH sensitivity, non-exchangeable proton H4” value is -3.9 ppm/pH unit. Also, in data set [3] (proton H8), the “T sensitivity, non-exchangeable proton H8” value is 0.170 ppm/° C and the “pH sensitivity, non-exchangeable proton H8” value is given as -4.0 ppm/pH unit.

Take `O=P(O)(O)CN1CCN(CP(=O)(O)O)CCN(CP(=O)(O)O)CCN(CP(=O)(O)O)CC1.[Co+2]` [CODOTP^6-]: in data set [1], the “Broadening (βc)” value is 0.016 ppm/mM and the “Shiftability (Sc)” value is given as -0.207 ppm/mM. In data set [2] (setting [5]), the “T sensitivity, non-exchangeable proton A” value amounted to 0.434 ppm/° C; the “pH sensitivity, non-exchangeable proton A” value amounted to 6.0 ppm/pH unit; the “T sensitivity, non-exchangeable proton C” value is 0.186 ppm/° C. Moreover, in data set [2] (setting [6]), the “T sensitivity, non-exchangeable proton B” value was 0.234 ppm/° C and the “pH sensitivity, non-exchangeable proton B” value was found to be 1.42 ppm/pH unit.

Regarding `O=P(O)(O)CN1CCN(CP(=O)(O)O)CCN(CP(=O)(O)O)CCN(CP(=O)(O)O)CC1.[Fe+2]` [FeDOTP^6-], in data set [1], the “Broadening (βc)” value is recorded as 0.023 ppm/mM and the “Shiftability (Sc)” value was “+0.688 ppm/mM”. For the same compound, in data set [2] (setting [5]), the “T sensitivity, non-exchangeable proton A” value is 0.345 ppm/° C and the “T sensitivity, non-exchangeable proton C” value is on record as 0.045 ppm/° C. The “T sensitivity, non-exchangeable proton B” value in data set [2] (setting [6]) amounted to 0.130 ppm/° C.

On to `O=C(CN1CCN(CC(=O)NCP(=O)(O)O)CCN(CC(=O)NCP(=O)(O)O)CCN(CC(=O)NCP(=O)(O)O)CC1)NCP(=O)(O)O.[Co+2]` [CoDOTA-4AMP^6-], for which, in data set [1], the “Broadening (βc)” value was found to be 0.022 ppm/mM and the “Shiftability (Sc)” value was -0.172 ppm/mM. For the same compound, the “T sensitivity, -NH proton” value in data set [2] (11.7 T) is recorded as 0.161 ppm/° C. In addition, the “T sensitivity, non-exchangeable proton A” value in data set [2] (setting [5]) came out at 0.576 ppm/° C.

As to `O=P(O)(O)CN1CCN(CP(=O)(O)O)CCN(CP(=O)(O)O)CC1.[Tm+3]` [TmNOTP^3-], in data set [2] (setting [7]), the “T sensitivity, non-exchangeable proton A (@56)” value was 0.351 ppm/° C and the “pH sensitivity, non-exchangeable proton A (@56)” value is -2.58 ppm/pH unit. Besides, in data set [2] (setting [8]), the “T sensitivity, non-exchangeable proton B (@23)” value came out at 0.140 ppm/° C and the “pH sensitivity, non-exchangeable proton B (@23)” value is reported as -0.56 ppm/pH unit. In addition, in data set [2] (setting [9]), the “T sensitivity, non-exchangeable proton C (@-20)” value is -0.250 ppm/° C and the “pH sensitivity, non-exchangeable proton C (@-20)” value came to 1.88 ppm/pH unit. In data set [4], the “Broadening (βc)” value is given as 0.018 ppm/mM and the “Shiftability (Sc)” value was -0.568 ppm/mM.

On to `O=C(CN1CCN(CC(=O)NCP(=O)(O)O)CCN(CC(=O)NCP(=O)(O)O)CCN(CC(=O)NCP(=O)(O)O)CC1)NCP(=O)(O)O.[Fe+2]` [FeDOTA-4AMP^6-], for which, in data set [1], the “Broadening (βc)” value stood at 0.020 ppm/mM and the “Shiftability (Sc)” value is listed as -0.477 ppm/mM. In addition, the “T sensitivity, -NH proton” value in data set [2] (11.7 T) stood at 0.158 ppm/° C. Also, the “T sensitivity, non-exchangeable proton A” value in data set [2] (setting [5]) was 0.413 ppm/° C. Further, the “T sensitivity, non-exchangeable proton E” value in data set [2] (proton E, 10 mM, pH 6.2-8.0, 298 K to 318 K, 11.7 T) is -0.306 ppm/° C.

On to `O=P(O)(O)CN1CCN(CP(=O)(O)O)CCN(CP(=O)(O)O)CCN(CP(=O)(O)O)CC1.[Gd+3]` [GdDOTP^5-], for which, in data set [4], the “Broadening (βc)” value is recorded as 0.036 ppm/mM and the “Shiftability (Sc)” value is recorded as -0.040 ppm/mM.

As for `O=P(O)(O)CN1CCN(CP(=O)(O)O)CCN(CP(=O)(O)O)CC1.[Gd+3]` [GdNOTP^3-], in data set [4], the “Broadening (βc)” value is given as 0.0117 ppm/mM and the “Shiftability (Sc)” value is reported as -0.0435 ppm/mM.

Source of the values: patent US20260356869A1, “TRANSITION METAL COMPLEXES FOR MRI APPLICATIONS AND METHODS OF USE” (Yale University, priority 2022, published 2026).
